What all share (format): in vivo
Assay [1] deals with Plutella xylostella (Diamond back moth). Briefly: Plutella xylostella artificial diet test, L2 larvae. To be noted: 120 h, application rate of 200 ppm, mortality and growth inhibition 5 days after infestation. The text has this:
(§1) The pesticidal/insecticidal properties of the compounds according to embodiments 1 or 2 can be illustrated via the following tests: Spodoptera littoralis (Egyptian cotton leaf worm) • Cotton leaf discs were placed onto agar in 24-well microtiter plates and sprayed with aqueous test solutions prepared from 10'000 ppm DMSO stock solutions. After drying the leaf discs were infested with five L1 larvae. […] Plutella xylostella (Diamond back moth): 24-well microtiter plates with artificial diet were treated with aqueous test solutions prepared from 10'000 ppm DMSO stock solutions by pipetting. After drying, the plates were infested with L2 larvae (10 to 15 per well). The samples were assessed for mortality and growth inhibition in comparison to untreated samples 5 days after infestation. […] Diabrotica balteata, (Corn root worm) • Maize sprouts placed onto an agar layer in 24-well microtiter plates were treated with aqueous test solutions prepared from 10'000 ppm DMSO stock solutions by spraying. After drying, the plates were infested with L2 larvae (6 to 10 per well). […] Thrips tabaci (Onion thrips): Sunflower leaf discs were placed on agar in 24-well microtiter plates and sprayed with aqueous test solutions prepared from 10'000 ppm DMSO stock solutions. After drying the leaf discs were infested with a thrips population of mixed ages. The samples were assessed for mortality 6 days after infestation. […] Tetranychus urticae (Two-spotted spider mite): Bean leaf discs on agar in 24-well microtiter plates were sprayed with aqueous test solutions prepared from 10'000 ppm DMSO stock solutions. After drying the leaf discs were infested with a mite population of mixed ages. The samples were assessed for mortality on mixed population (mobile stages) 8 days after infestation. […] Euschistus heros (Neotropical Brown Stink Bug): • Two weeks old soybean plants were sprayed in a turn table spray chamber with the diluted spray solutions. After drying 2 soybean seeds were added and plants were infested with 10 N2 nymphs of the neotropical brown stink bug Euschistus heros in plastic test boxes. The samples were assessed for mortality in comparison to untreated samples 5 days after infestation. • The following compounds gave at least 80% mortality of Euschistus heros at an application rate of 12.5 ppm: Compounds 3 , 4 , 8 , 39 , 43 , 44 , 46 , 75 , 76 , 77 , 78 , 79 , 80 , 81 , 82 , 88 , 90 , 93 and 95 . Myzus persicae (Green peach aphid): Sunflower leaf discs were placed on agar in a 24-well microtiter plate and sprayed with test solutions at an application rate of 200 ppm. After drying, the leaf discs were infested with an aphid population of mixed ages. After an incubation period of 6 DAT, samples were checked for mortality. The following compounds gave at least 50% mortality of Myzus persicae: Compounds 3 , 4 , 8 , 43 , 44 , 75 , 76 , 77 , 80 , 81 , 90 and 92 . Myzus persicae (Green peach aphid): • Test compounds were applied by pipette into 24 well plates and mixed with Sucrose solution. Application rate: 12.5ppm. The plates were closed with a stretched parafilm. A plastic stencil with 24 holes is placed onto the plate and infested pea seedlings were placed directly on the Parafilm. The infested plate is closed with a gel blotting paper and another plastic stencil and then turned upside down. […]

Assay [2] concerns Diabrotica balteata, (Corn root worm). The assay is described as follows: Diabrotica balteata maize sprout spray test, L2 larvae. Conditions: 96 h.
From the text: as §1

Assay [3] relates to Myzus persicae (Green peach aphid). Briefly: Myzus persicae sucrose solution / Parafilm feeding test. Conditions: 120 h, read-out: mortality of Myzus persicae.
From the text: as §1

The test system of assay [4] is Thrips tabaci (Onion thrips). Briefly: Thrips tabaci sunflower leaf disc spray test. Conditions: foliar, 144 h, application rate of 200 ppm, mortality 6 days after infestation, mixed ages.
From the text: as §1

Assay [5] concerns Spodoptera littoralis (Egyptian cotton leaf worm). Briefly: Spodoptera littoralis cotton leaf disc spray test, L1 larvae. To be noted: foliar, 72 h.
From the text: as §1

For assay [6], the system named is Tetranychus urticae (Two-spotted spider mite). Briefly: Tetranychus urticae bean leaf disc spray test. Conditions: foliar, 192 h, application rate of 200 ppm, mortality on mixed population (mobile stages) 8 days after infestation.
From the text: as §1

Assay [7] relates to Euschistus heros (Neotropical Brown Stink Bug). Briefly: Euschistus heros soybean plant spray test, N2 nymphs. Conditions: 120 h, application rate of 12.5 ppm, 5 days after infestation, N2 nymphs, read-out: mortality of Euschistus heros.
From the text: as §1

Assay [8] deals with Myzus persicae (Green peach aphid). Briefly: Myzus persicae sunflower leaf disc spray test. Conditions: foliar, 144 h, application rate of 200 ppm, leaf disc spray, 6 DAT, read-out: mortality of Myzus persicae.
From the text: as §1

The mark [9] stands for this setting: application rate of 200 ppm, 4 days after infestation, L2 larvae, read-out: mortality.
The mark [10] stands for this setting: Application rate: 12.5ppm, sucrose solution, 5 days after infestation.
[11] abbreviates: application rate of 200 ppm, 3 days after infestation, L1 larvae, read-out: mortality.

Where two headings read alike, the source gives them in different places.

One may read the pest or weed control as the degree to which the test organism was suppressed or injured, in per cent. The term mortality denotes the share of the test organisms that died. Turning to `Cn1nc(C(F)(F)C(F)(F)F)c(C(F)(F)F)c1-c1cc(-c2ccc(Cl)c(C(=O)NCC(F)(F)F)c2)on1` [Compound 96, 2-chloro-5-[3-[2-methyl-5-(1,1,2,2,2-pentafluoroethyl)-4-(trifluoromethyl)pyrazol-3-yl]isoxazol-5-yl]-N-(2,2,2-trifluoroethyl)benzamide], the pest or weed control at 200 ppm in assay [1] and in assay [4] was not below 80% throughout. In addition, the mortality at 200 ppm in assay [2] (setting [9]) and in assay [5] (setting [11]) was not below 80% throughout. In addition, the mortality at 12.5 ppm in assay [3] (setting [10]) was not below 80%.

With `Cn1nc(C(F)(F)C(F)(F)F)c(C(F)(F)F)c1-c1cc(-c2ccc(Cl)c(C(=O)NC3CC3)c2)on1` [Compound 8, 2-chloro-N-cyclopropyl-5-[3-[2-methyl-5-(1,1,2,2,2-pentafluoroethyl)-4-(trifluoromethyl)pyrazol-3-yl]isoxazol-5-yl]benzamide], the pest or weed control at 200 ppm in assay [1], in assay [6] and in assay [4] was not below 80% throughout. The mortality at 200 ppm in assay [2] (setting [9]) is not below 80%; in assay [5] (setting [11]) it was not below 80%; in assay [8], not below 50%. The mortality at 12.5 ppm in assay [7] is not below 80%.

Consider `CCNC(=O)c1cc(-c2cc(-c3c(C(F)(F)F)c(C(F)(F)C(F)(F)F)nn3C)no2)ccc1Cl` [Compound 90, 2-chloro-N-ethyl-5-[3-[2-methyl-5-(1,1,2,2,2-pentafluoroethyl)-4-(trifluoromethyl)pyrazol-3-yl]isoxazol-5-yl]benzamide], for which the pest or weed control at 200 ppm in assay [1], in assay [6] and in assay [4] was not below 80% in each case. The mortality at 200 ppm in assay [2] (setting [9]) was not below 80%; in assay [5] (setting [11]), not below 80%; in assay [8], not below 50%. Besides, the mortality at 12.5 ppm in assay [7] is not below 80%.

Turning to `CNC(=O)c1cc(-c2cc(-c3c(C(F)(F)F)c(C(F)(F)C(F)(F)F)nn3C)no2)ccc1Cl` [Compound 92, 2-chloro-N-methyl-5-[3-[2-methyl-5-(1,1,2,2,2-pentafluoroethyl)-4-(trifluoromethyl)pyrazol-3-yl]isoxazol-5-yl]benzamide], the pest or weed control at 200 ppm in assay [1], in assay [6] and in assay [4] was not below 80% in each case. Moreover, the results for the mortality at 200 ppm in assay [2] (setting [9]), in assay [5] (setting [11]) and in assay [8] were not below 80%, not below 80% and not below 50%, respectively. In assay [3] (setting [10]), the mortality at 12.5 ppm was not below 80%.

Take `Cn1nc(C(F)(F)C(F)(F)F)c(C(F)(F)F)c1-c1cc(-c2ccc(Cl)c(C(=O)NC3(C(=O)O)CC3)c2)on1` [Compound 75, 1-[[2-chloro-5-[3-[2-methyl-5-(1,1,2,2,2-pentafluoroethyl)-4-(trifluoromethyl)pyrazol-3-yl]isoxazol-5-yl]benzoyl]amino]cyclopropanecarboxylic acid]: the results for the mortality at 200 ppm in assay [2] (setting [9]) and in assay [8] were not below 80% and not below 50%, respectively. Also, the mortality at 12.5 ppm in assay [3] (setting [10]) and in assay [7] was not below 80% in each case. In assay [4], this compound came in with a pest or weed control at 200 ppm not below 80%.

Regarding `Cn1nc(C(F)(F)C(F)(F)F)c(C(F)(F)F)c1-c1cc(-c2ccc(Cl)c(C(=O)NCC(F)F)c2)on1` [Compound 97, 2-chloro-N-(2,2-difluoroethyl)-5-[3-[2-methyl-5-(1,1,2,2,2-pentafluoroethyl)-4-(trifluoromethyl)pyrazol-3-yl]isoxazol-5-yl]benzamide], in assay [1], the pest or weed control at 200 ppm is not below 80%. Further, the mortality at 200 ppm in assay [2] (setting [9]) and in assay [5] (setting [11]) was not below 80% throughout. The mortality at 12.5 ppm in assay [3] (setting [10]) was not below 80%.

On to `Cn1cc(-c2c(C(F)(F)F)c(C(F)(F)C(F)(F)F)nn2C)nc1-c1ccc(Cl)c(C(=O)NC2CC2)c1` [Compound 29, 2-chloro-N-cyclopropyl-5-[1-methyl-4-[2-methyl-5-(1,1,2,2,2-pentafluoroethyl)-4-(trifluoromethyl)pyrazol-3-yl]imidazol-2-yl]benzamide], for which the pest or weed control at 200 ppm in assay [1] and in assay [6] was not below 80% in each case. The mortality at 200 ppm in assay [2] (setting [9]) and in assay [5] (setting [11]) was not below 80% in each case. Further, the mortality at 12.5 ppm in assay [3] (setting [10]) was not below 80%.

In the case of `CC(C)NC(=O)c1cc(-c2cc(-c3c(C(F)(F)F)c(C(F)(F)C(F)(F)F)nn3C)no2)ccc1Cl` [Compound 93, 2-chloro-N-isopropyl-5-[3-[2-methyl-5-(1,1,2,2,2-pentafluoroethyl)-4-(trifluoromethyl)pyrazol-3-yl]isoxazol-5-yl]benzamide], the pest or weed control at 200 ppm in assay [1], in assay [6] and in assay [4] was not below 80% each time. In addition, the mortality at 200 ppm in assay [2] (setting [9]) and in assay [5] (setting [11]) was not below 80% in each case. Also, the mortality at 12.5 ppm in assay [3] (setting [10]) and in assay [7] was not below 80% each time.

`Cn1nc(C(F)(F)C(F)(F)F)c(C(F)(F)F)c1-c1cc(-c2ccc(Cl)c(C(=O)N[C@H]3C[C@@H]3C(F)(F)F)c2)on1` [Compound 80, 2-chloro-5-[3-[2-methyl-5-(1,1,2,2,2-pentafluoroethyl)-4-(trifluoromethyl)pyrazol-3-yl]isoxazol-5-yl]-N-[(1S,2S)-2-(trifluoromethyl)cyclopropyl]benzamide]: the pest or weed control at 200 ppm in assay [1], in assay [6] and in assay [4] was not below 80% each time. In addition, the mortality at 200 ppm was not below 80% in assay [2] (setting [9]), not below 80% in assay [5] (setting [11]) and not below 50% in assay [8]. For the same compound, in assay [7], the mortality at 12.5 ppm is not below 80%.

Regarding `Cn1nc(-c2ccc(Cl)c(C(=O)NC3CC3)c2)cc1-c1c(C(F)(F)F)c(C(F)(F)C(F)(F)F)nn1C` [Compound 39, 2-chloro-N-cyclopropyl-5-[1-methyl-5-[2-methyl-5-(1,1,2,2,2-pentafluoroethyl)-4-(trifluoromethyl)pyrazol-3-yl]pyrazol-3-yl]benzamide], the pest or weed control at 200 ppm in assay [1], in assay [6] and in assay [4] was not below 80% in each case. Moreover, the mortality at 200 ppm in assay [2] (setting [9]) and in assay [5] (setting [11]) was not below 80% each time. For the same compound, the mortality at 12.5 ppm in assay [3] (setting [10]) and in assay [7] was not below 80% throughout.

On to `Cn1nc(C(F)(F)C(F)(F)F)c(C(F)(F)F)c1-c1noc(-c2ccc(Cl)c(C(=O)NC3(C#N)CC3)c2)n1` [Compound 10, 2-Chloro-N-(1-cyanocyclopropyl)-5-[3-[2-methyl-5-(1,1,2,2,2-pentafluoroethyl)-4-(trifluoromethyl)pyrazol-3-yl]-1,2,4-oxadiazol-5-yl]benzamide], for which the pest or weed control at 200 ppm in assay [1] and in assay [4] was not below 80% throughout. In addition, the mortality at 200 ppm in assay [2] and in assay [5] was not below 80% in each case. For the same compound, the mortality at 12.5 ppm in assay [3] is not below 80%.

The values above are taken from patent EP3325465B1, “PESTICIDALLY ACTIVE PYRAZOLE DERIVATIVES” (Syngenta Participations AG, priority 2015, dated 2017).
